Test results taken from patent US9376700B2, “Methods of modifying N-termini of a peptide or protein using transferases” (The Trustees of the University of Pennsylvania, priority 2012, dated 2016).

Columns and labels:
Format in all cases: biochemical
[1] = target: T1, E. coli aminoacyl tRNA transferase (AaT) (Escherichia coli, UniProt P0A8P1); test: AaT-catalyzed α-casein N-terminal modification (Edman degradation, tryptic digest MALDI MS); conditions: double addition of donor
T1 construct: made in house; host or cells: E. coli BL21-Gold (DE3), plasmid pEG6, Ni-NTA purified
Description: HEPES pH 8.0, 1.50 mM KO, 10 mM MgCl2) and AaT (0.05 mg). The reaction mixture was incubated at 37° C. for 12 h, AaT was removed using Ni^2+ resin (Ni-NTA Superflow, Qiagen), and then buffer exchanged four times into phosphate buffered saline (PBS, 12 mM NaH2PO4, 50 mM NaCl, 4.7 mM KCl, pH 8.0) by Spectra/Por 1 dialysis tubing (Spectrum Laboratories; Rancho Dominguez, Calif.). Azf-modified α-casein was used directly after buffer exchange into PBS. Aliquots (1 nmol) of α-casein were diluted into PBS (22 μL) containing either fluorescein-alkyne (FlAlk, 91 μM) or propargylamine (Alk, 227 μM) for copper-catalyzed azide-alkyne cycloaddition (CuAAC). […] Reactions were boiled with gel loading dye LDS (Pierce; Rockford, Ill.) for 10 min at 95° C. and analyzed by SDS-PAGE. Fluorescence images were obtained with a Geldoc (BioRAD; Hercules, Calif.) using an excitation wavelength of 302 nm for detection of fluorescein. α-Casein was also directly visualized by Coomassie Brilliant Blue staining.
α-Casein-Azf (33 or α-casein (33 μg) was digested with sequencing grade modified Trypsin (0.6 μg) in 27 μL of 25 mM ammonium bicarbonate pH 7.5 (freshly prepared). Digestions were carried out at 37° C. for 14 h. Trypsin digest aliquots (1 μL) were combined with α-cyano-4-hydroxycinnamic acid (1 μL of a saturated solution in 1:1 H2O/CH3CN with 1% TFA) and analyzed by MALDI MS. […]

[2] = target: T1, E. coli aminoacyl tRNA transferase (AaT); test: α-Casein labeling in cleared E. coli cell lysate with unpurified AaT, then click reaction with FlAlk; conditions: fluorescence after labeling with FlAlk
Description: AaT was expressed in E. coli BL21-Gold (DE3) cells as previously described. A cleared cell lysate was obtained by centrifugation following cell lysis using sonication. Protein were modified in a final reaction volume of 110 μL with Azf-A (4c, 3 mM) using AaT (25 from cleared lysate in AaT buffer (50 mM HEPES pH 8.0, 150 mM KCl, 10 mM MgCl2). α-Casein (0.012 mg or 0.12 mg) was added to the reaction and incubated at 37° C. for 2 h, after 1 h an additional 0.3 μmole of 4c was added. For control reactions, equivalent volumes were replaced with water. Excess 4c was removed by buffer exchange four times against phosphate buffered saline (PBS, 12 mM NaH2PO4, 50 mM NaCl, 4.7 mM. KCl, pH 8.0) by Spectra/Por 1 dialysis tubing. Aliquots (18 μL) of 4c modified lysates were diluted to a final volume of 22 pit using PBS containing FlAlk (182 μM) for copper-catalyzed “click” reactions. The “click” reaction was initiated by addition of CuSO4 (100 μM), THPTA (500 μM), and sodium ascorbate (5 mM). The reaction mixtures were analyzed by PAGE gel using Coomassie staining and fluorescence as above.
After AaT-catalyzed modification of α-casein with Azf, residual 4c was removed by dialysis. […] Azf transfer was successful, as shown by the observation of fluorescence after labeling with FlAlk.

[3] = target: E. coli aminoacyl transferase (AaT) (Escherichia coli, UniProt P0A8P1); test: LysAlaAcm ligation assay: AaT-catalyzed transfer from aminoacyl adenosine donor to LysAlaAcm, HPLC at 325 nm; parameters: made in house; host or cells: E. coli BL21-Gold (DE3), plasmid pEG6, Ni-NTA purified; conditions: single addition of 1 mM donor, 100 μM LysAlaAcm, 2.26 μM AaT, 37° C., 4 h, no additive
Description: Each ligation reaction, 125 μL total volume, contained the following reagents: aminoacyl adenosine donor (1 mM), recombinant His10-tagged E. coli aminoacyl transferase (2.26 μM), and LysAlaAcm (100 μM) in the AaT Ligation Buffer (50 mM HEPES pH 8.0, 150 mm KCl, 10 mM MgCl2). The reaction mixtures were incubated at 37° C. for four hours and quenched with 1% acetic acid. The proteins were extracted from the reactions via acetone precipitation. The reactions were precipitated using 4× reaction volume of acetone and cooled at −20° C. for 1 h. Next, the reactions were centrifuged at 13,200 rpm at 4° C. for 20 min to separate the reaction from precipitated protein. The supernatant was transferred to fresh 1.5 mL centrifuge tubes and allowed for acetone evaporation overnight at room temperature. After acetone evaporation, the supernatant was dried in a Speedvac (Savant, Thermo Scientific, Fisher Inc.) for 30 min to remove residual acetone. The resulting reaction volume was dissolved up to 1.2 mL using Milli-Q water and analyzed by HPLC (gradient below) to determine ligation yield by integration of separated peak intensities monitored at 325 nm. Collected HPLC fractions were characterized through MALDI MS analysis. […] Reactions using Phe-pdCpA as donor were carried out in an identical fashion (Ellman, et al., 1991, Methods Enzymol. 202:301-336).
All HPLC analyses of LysAlaAcm ligations were monitored on an Agilent HPLC using a Waters C18 column (Milford, Mass.).
All HPLC analyses of LysAlaAcm ligations were monitored as described elsewhere herein (Gradient 1).
The extent of transfer was evaluated by HPLC analysis of reactions with adenosyl donor, AaT or BpT, and an aminocoumarin-labeled reporter peptide (for AaT, LysAlaAcm was used as previously described by Tirrell and co-workers; for BpT, AspAlaAcm was used in an analogous fashion) (Connor et al., 2008, ChemBioChem 9:366-369). Monitoring LysAlaAcm or AspAlaAcm acylation in crude reaction mixtures using absorbance at 325 nm conveniently eliminates background due to other proteins and nucleic acids, although some non-natural amino acids such as naphthylalanine (Nap) and methoxycoumarinylalanine (Mcm) also absorb in this range.
To evaluate substrate scope, reactions were analyzed after 4 h, when transfer should be complete for the fully enzymatic reaction with Phe tRNA synthetase (Connor et al., 2008, ChemBioChem 9:366-369).

T1 sequence (P0A8P1 whole entry): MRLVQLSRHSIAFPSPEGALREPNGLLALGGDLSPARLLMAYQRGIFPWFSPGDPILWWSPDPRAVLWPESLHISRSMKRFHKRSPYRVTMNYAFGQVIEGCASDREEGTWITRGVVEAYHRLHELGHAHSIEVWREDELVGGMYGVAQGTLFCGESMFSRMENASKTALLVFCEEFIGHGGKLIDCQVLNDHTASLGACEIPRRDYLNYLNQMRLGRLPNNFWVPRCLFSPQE
E. coli aminoacyl transferase (AaT), sequence (P0A8P1 whole entry): as above

[N-]=[N+]=Nc1ccc(C[C@H](N)C(=O)O[C@@H]2[C@H](O)[C@@H](CO)O[C@H]2n2cnc3c(N)ncnc32)cc1 [4c, (S)-(2R,3R,4R,5R)-2-(6-amino-9H-purin-9-yl)-4-hydroxy-5-(hydroxymethyl)tetrahydrofuran-3-yl 2-amino-3-(4-azidophenyl)propanoate] was tested, and the “Conversion of α-casein, trypsin digest and MALDI MS” value [1] was “Complete conversion”, the “Azf transfer to α-casein in crude E. coli lysate with unpurified AaT” value [2] was “successful” and the “Ligated Product Yield (%)” value [3] was 78.5 ± 5.2%.
